How the values were obtained:
Assay in all cases: relative viability (nuclei count vs DMSO), 5 days (fraction); higher = more cells survive
Tivantinib + Tozasertib = compound: O=C1NC(=O)[C@@H](c2cn3c4c(cccc24)CCC3)[C@@H]1c1c[nH]c2ccccc12 [Tivantinib] + Cc1cc(Nc2cc(N3CCN(C)CC3)nc(Sc3ccc(NC(=O)C4CC4)cc3)n2)n[nH]1 [Tozasertib] (partner 0.1 µM)
In short: (§1)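 Each reported value is a median over duplicate plates. It expresses relative viability: treated-well nuclei count divided by vehicle-well nuclei count. Lung cancer cell lines in 1536-well plates were dosed by pin tool a day after seeding, alone with one drug or with a fixed anchor-drug dose plus five library-drug doses (not always all listed) in √10 steps, and nuclei were counted after 5 days.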

Crenolanib + Olaparib = compound: CC1(COc2ccc3c(c2)ncn3-c2ccc3cccc(N4CCC(N)CC4)c3n2)COC1 [Crenolanib] + O=C(c1cc(Cc2n[nH]c(=O)c3ccccc23)ccc1F)N1CCN(C(=O)C2CC2)CC1 [Olaparib] (partner 8 µM)
In short: as §1

Crenolanib + Lapatinib = compound: CC1(COc2ccc3c(c2)ncn3-c2ccc3cccc(N4CCC(N)CC4)c3n2)COC1 [Crenolanib] + CS(=O)(=O)CCNCc1ccc(-c2ccc3ncnc(Nc4ccc(OCc5cccc(F)c5)c(Cl)c4)c3c2)o1 [Lapatinib] (partner 2 µM)
In short: as §1

Tivantinib + Decitabine = compound: O=C1NC(=O)[C@@H](c2cn3c4c(cccc24)CCC3)[C@@H]1c1c[nH]c2ccccc12 [Tivantinib] + Nc1ncn([C@H]2C[C@H](O)[C@@H](CO)O2)c(=O)n1 [Decitabine] (partner 2 µM)
In short: as §1

Cell Line	relative viability (Tivantinib + Tozasertib; first compound 0.01 µM)	relative viability (Tivantinib + Tozasertib; first compound 0.03162 µM)	relative viability (Tivantinib + Tozasertib; first compound 0.1 µM)	relative viability (Tivantinib + Tozasertib; first compound 0.3162 µM)	relative viability (Crenolanib + Olaparib; first compound 0.01 µM)	relative viability (Crenolanib + Olaparib; first compound 0.03162 µM)	relative viability (Crenolanib + Olaparib; first compound 0.1 µM)	relative viability (Crenolanib + Olaparib; first compound 0.3162 µM)	relative viability (Crenolanib + Olaparib; first compound 1 µM)	relative viability (Crenolanib + Lapatinib; first compound 0.01 µM)	relative viability (Crenolanib + Lapatinib; first compound 0.03162 µM)	relative viability (Crenolanib + Lapatinib; first compound 0.1 µM)	relative viability (Crenolanib + Lapatinib; first compound 0.3162 µM)	relative viability (Crenolanib + Lapatinib; first compound 1 µM)	relative viability (Tivantinib + Decitabine; first compound 0.01 µM)	relative viability (Tivantinib + Decitabine; first compound 0.03162 µM)	relative viability (Tivantinib + Decitabine; first compound 0.1 µM)	relative viability (Tivantinib + Decitabine; first compound 0.3162 µM)
201T	0.985	0.897	0.919	0.88	0.83	0.852	0.786	0.867	0.86	1	1.02	1.03	0.965	1.01	0.829	0.861	0.839	0.81
A549	–	–	–	–	0.474	0.317	0.329	0.421	0.365	1.12	1.1	0.948	1.23	1.1	0.246	0.276	0.228	0.294
A-427	0.21	0.2	0.198	0.169	0.79	–	0.759	0.847	0.629	0.996	0.998	1.04	1.06	1.06	0.602	0.579	0.508	0.518
ABC-1	0.209	0.155	0.215	0.223	1.01	0.78	0.614	0.668	0.625	1.23	1.02	1.28	1.1	1.23	1.23	1.22	0.825	0.968
BEN	0.529	0.549	0.574	0.537	1.15	0.96	0.966	1.01	1.05	0.808	0.552	0.746	0.685	0.68	0.755	0.69	0.631	0.796
CAL-12T	0.416	0.337	0.259	0.293	0.746	0.694	0.721	0.771	0.725	0.73	0.618	0.661	0.703	0.821	–	–	–	–
COR-L23	0.185	0.188	0.184	0.234	0.321	0.342	0.307	0.347	0.291	0.952	1.13	0.836	0.931	0.987	0.496	0.446	0.433	0.445
COR-L 105	0.32	0.414	0.397	0.383	0.729	0.641	0.643	0.751	0.584	0.353	0.403	0.345	0.37	0.335	0.641	0.662	0.589	0.596
Calu-6	–	–	–	–	0.596	0.494	0.529	0.643	0.556	0.996	1.02	1.05	1.27	1.06	–	–	–	–
ChaGo-K-1	0.205	0.219	0.218	0.218	0.398	0.406	0.426	0.422	0.45	–	–	–	–	–	0.541	0.52	0.562	0.522
EBC-1	–	–	–	–	0.768	0.727	0.667	0.663	0.641	0.212	0.213	0.22	0.202	0.215	–	–	–	–
EKVX	0.388	0.346	0.421	–	0.93	0.849	0.841	0.965	0.809	0.2	0.241	0.186	0.222	0.239	0.312	0.351	0.381	0.153
EMC-BAC-2	0.276	0.271	0.136	0.261	0.559	–	0.466	0.532	0.462	0.912	0.862	0.882	0.931	0.81	1.03	0.981	0.941	0.965
EPLC-272H	0.206	0.268	0.283	0.152	0.854	0.868	0.605	1.11	0.989	–	0.877	0.722	0.977	1.02	0.389	0.331	0.383	0.31
H3255	0.62	0.594	0.535	–	0.57	0.541	0.552	0.586	0.531	0.271	0.218	0.241	0.233	0.24	–	0.53	0.591	0.27
HARA	0.122	0.12	0.104	0.0992	0.846	0.949	0.707	0.87	0.683	0.711	0.81	0.645	0.602	0.684	0.457	0.61	0.469	0.543
HCC-15	0.463	0.442	0.409	0.335	0.828	0.734	0.726	0.631	0.63	0.829	0.895	0.807	0.83	0.793	0.715	0.636	0.538	0.755
HCC-44	0.968	0.712	0.887	0.275	0.983	0.941	0.976	0.98	0.991	1.02	0.997	0.901	0.999	0.905	0.988	0.987	0.971	1.09
HCC-78	0.443	0.437	0.405	0.277	0.998	0.86	0.678	0.826	0.745	0.138	0.637	0.705	0.71	0.467	0.707	0.694	0.667	0.702
HCC-366	0.103	0.114	0.115	0.0949	0.414	0.362	0.344	0.509	0.332	0.954	1.09	0.916	1.31	0.915	0.349	0.289	0.324	0.301
